Data published in publication PMC12542965, “Remolding laccase for whole-cell and in vivo modulation of dopamine signal” (Science Advances, 2025).

Experiments:
[1] = target: T1, RuCu-SLAC (remolded laccase) (Streptomyces coelicolor, UniProt Q9XAL8); test: UV-vis quinone formation at […] nm; format: biochemical; conditions: 50 mM sodium phosphate, O2 as co-substrate, pH 6.0 to 8.0 (pH series); Ru-Cu artificial metal centre; T1 Cu quantified at 590 nm
T1 construct: gene SCO6712; artificial metalloenzyme: same apo-SLAC polypeptide (E. coli BL21(DE3), N-terminal GST tag cut off by PPase) loaded with Ru3+ then Cu2+; homodimer with one Ru and three Cu; Ru-Cu binuclear centre replaces the Cu trinuclear cluster
T1 sequence (Q9XAL8 34-343): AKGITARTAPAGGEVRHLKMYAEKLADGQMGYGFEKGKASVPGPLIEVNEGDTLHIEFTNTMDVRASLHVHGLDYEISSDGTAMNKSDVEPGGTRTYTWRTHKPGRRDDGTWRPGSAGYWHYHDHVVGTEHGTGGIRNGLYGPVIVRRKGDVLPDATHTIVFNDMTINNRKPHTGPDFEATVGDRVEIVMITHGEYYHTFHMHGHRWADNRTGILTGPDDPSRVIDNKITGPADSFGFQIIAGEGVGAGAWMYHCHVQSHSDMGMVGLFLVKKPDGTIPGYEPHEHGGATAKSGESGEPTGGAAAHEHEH

[2] = target: T2, native SLAC (bacterial small laccase) (Streptomyces coelicolor, UniProt Q9XAL8); test: UV-vis quinone formation at […] nm; format: biochemical; conditions: 50 mM sodium phosphate, O2 as co-substrate, pH 6.0 to 8.0 (pH series); native Cu-reconstituted enzyme; T1 Cu quantified at 590 nm
T2 construct: gene SCO6712; reconstituted with CuCl2 (T1 Cu and T2/T3 Cu trinuclear cluster); trimer
T2 sequence (Q9XAL8 34-343): T1 sequence (Q9XAL8 34-343)

NCCc1ccc(O)c(O)c1 [dopamine]
Michaelis-Menten constants [1]: Michaelis-Menten constants and Kcat (turnover number) of both enzymes with a dopamine substrate | Michaelis-Menten constants [2]: Michaelis-Menten constants and Kcat (turnover number) of both enzymes with a dopamine substrate
